Measured values from patent US4937390A, “Compound useful for the production of 3-deoxy-3-fluoro-myo-inositol” (University of Pittsburgh, priority 1989, dated 1990).
One block for each compound: values may come before it.

Experiments:
[1] = tested on: PC12 cells; test: Effect on cell size (protein per cell, Lowry) in PC12 cells; type: cell-based, rat; conditions: for effect on cell cycle / cell division: chronically treated PC12 cells
Excerpt: As cells grow in culture, the size of an individual cell varies in a fairly predictable way. The size of a cell can be expressed as the amount of protein present per cell. […] Immediately after mitosis, the cell size drops considerably, frequently to levels approximately half of the pre-mitotic level.
By investigating the size of a cell, it is possible to determine at which point within the cell cycle inhibitors of cell replication are exerting their effects. Accordingly, we investigated the effect of the 1- and 3-fluoro-myo-inositol analogs on the size of cells chronically treated with such analogs.
Cells were grown and treated with 1- and 3-fluoro-myo-inositol analogs as described in Example XIII. On the days indicated, cells were gently harvested without disruption, and the number of cells counted in triplicate in a cell counting chamber. Following determination of the number of cells per sample, the remainder of the cells were pelleted in a microcentrifuge as described hereinabove, and the protein in the sample was determined by the method of Lowry. Thus, it was possible to derive from these two data sets the amount of protein per cell, which is expressed as nanograms of protein per cell, as indicated in Table 3: […]

[2] = biological target: T1, myo-inositol transporter (Rattus norvegicus, UniProt Q80WA5); test: [3H]myo-inositol uptake by the myo-inositol transporter in PC12 cells; type: cell-based; conditions: for block of [3H]myo-inositol uptake / Maximal Transport Rate Vmax / Ki: PC12 cells; for Maximal Transport Rate Vmax: in the presence of 1 mM analog; for Ki: uptake studies in the presence of a fixed concentration (1 mM) of analog, read-out: Affinity Constant K (Ki of the analog)
T1 construct: PC12 cells were gently detached and maintained in a suspension culture; endogenous in cells; host or cells: PC12 cells
T1 sequence (Q80WA5 1-718): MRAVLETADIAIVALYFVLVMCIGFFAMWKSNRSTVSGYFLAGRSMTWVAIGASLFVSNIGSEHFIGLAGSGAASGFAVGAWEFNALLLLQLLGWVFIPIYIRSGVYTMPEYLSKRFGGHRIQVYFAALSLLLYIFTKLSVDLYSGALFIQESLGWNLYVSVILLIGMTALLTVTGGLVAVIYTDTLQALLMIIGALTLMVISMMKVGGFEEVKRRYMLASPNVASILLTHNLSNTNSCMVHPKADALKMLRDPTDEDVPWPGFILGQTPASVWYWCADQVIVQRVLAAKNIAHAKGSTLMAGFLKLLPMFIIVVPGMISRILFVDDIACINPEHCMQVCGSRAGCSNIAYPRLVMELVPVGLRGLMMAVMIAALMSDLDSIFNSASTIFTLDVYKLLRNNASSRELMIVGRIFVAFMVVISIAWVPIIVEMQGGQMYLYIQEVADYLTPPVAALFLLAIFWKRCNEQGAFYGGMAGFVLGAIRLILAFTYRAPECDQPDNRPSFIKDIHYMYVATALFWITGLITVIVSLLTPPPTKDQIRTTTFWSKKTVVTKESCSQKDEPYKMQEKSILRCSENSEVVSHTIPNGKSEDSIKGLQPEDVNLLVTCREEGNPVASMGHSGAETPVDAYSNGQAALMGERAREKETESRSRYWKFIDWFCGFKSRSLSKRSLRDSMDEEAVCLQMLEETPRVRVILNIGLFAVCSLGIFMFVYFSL
Method: To determine if the effect of the fluoro-myo-inositol analogs might be mediated by the blockade of the myo-inositol transporter, which is responsible for uptake and accumulation of myo-inositol into the cell, the ability of these two compounds to block [^3 H]myo-inositol transport was studied directly.
The uptake of [^3 H]myo-inositol by the myo-inositol transporter was determined as follows:
PC12 cells were gently detached and maintained in a suspension culture in RPMI medium (both myo-inositol and serum free) at 37° C. ]^3 H]myo-inositol was added to this culture at a concentration of 1μCi/ml. Aliquots of this suspension were removed at the indicated time, diluted in 10 volumes of ice-cold PBS containing 10 mM unlabelled myo-inositol to stop the uptake process, centrifuged at 4° C. for 20 minutes at 50 xg. The cell pellet, which contained the transported [^3 H]myo-inositol, was dissolved in dilute NaOH and the radioactivity quantified by liquid scintillation counting.
The […] and Vmax of myoinositol were determined from LineweaverBurke plots
of the uptake of [^3 H]myoinositol (25 nM) in the presence of
increasing concentrations of unlabeled myoinositol in PC12 cells. The Ki
of the two fluoromyo-inositol analogs was determined by conducting the
uptake studies in the presence of a fixed concentration (1 mM) of each

[3] = tested on: PC12 cells; test: Cell growth inhibition (cell counts), dose response and time course in PC12 cells; type: cell-based, rat; conditions: for concentration determined to have maximal effects in the dose response study / inhibition of cell replication / Cell Number / potency at inhibiting cell replication relative to the 3-fluoro-myo-inositol analog: PC12 cells; for concentration determined to have maximal effects in the dose response study: cell replication; for inhibition of cell replication: dose response study, maximal effect; for inhibition of cell replication / Cell Number: five days
Method: The biological effects of the 3-fluoro and 1-fluoro myo-inositol analogs were tested in PC12 cells, a cell line derived from a rat pheochromocytoma, which has been widely used to study the effects of various growth factors and […]., Adv. Cell Neurobiol., 3, 373-414, (1982), the disclosure of which is incorporated herein by reference.
PC12 cells were seeded at a density of 3.3×10^5 cells/cm^2 in plastic culture dishes and grown at 37° C. in a humidified atmosphere of 95% air/5% CO2. The basal medium used in these experiments was RPMI-1640 medium (Gibco). In some experiments a specially formulated inositol-free RPMI-1640 medium (Gibco) was used. This basal medium was supplemented with either normal or extensively dialyzed horse serum (10%) and fetal calf serum (5%) (Gibco). Some control dishes were grown in complete RPMI medium, i.e. with myo-inositol and containing non-dialyzed serum (Control 1) and some control dishes were grown in inositol deficient medium, i.e., RPMI without inositol and with dialyzed serum (Control 2). The inositol analogs were dissolved in distilled H2 O and added to the culture medium at the indicated concentrations.
Cell counts were performed by removing the medium, washing the cells gently in PBS with calcium, detaching the cells by 15 minute induction in PBS/EDTA (0.5 mM) containing 0.1% trypsin, and counting in a hemocytometer.
A dose-response study was performed by growing cells in the presence of certain concentrations of the 3-fluoro and the 1-fluoro-myo-inositol analogs. At the end of five days, the cells were counted by the means described hereinabove.
The time course effect on cell replication was then examined, using the concentration of 1-fluoro and 3-fluoro myo-inositol analogs determined to have maximal effects in the dose response study of Table 1. (1 mM and 5 mM for the 1-fluoro and 3-fluoro-myo-inositol analogs, respectively).

- affinity for the myo-inositol transporter, fold lower than the 3-fluoro-myo-inositol analog [2]: 5.7 fold
- block of [3H]myo-inositol uptake [2]: did block
- Maximal Transport Rate Vmax [2]: 2.27 nmol/mg/h
- Ki [2]: 1430 µM
SMILES: O[C@@H]1[C@@H](O)[C@@H](O)[C@@H](F)[C@H](O)[C@H]1O [1-deoxy-1-fluoro-myo-inositol]
- cell size relative to controls ([1]; cells arrested in pre-mitotic state): approximately 2 fold
- effect on cell cycle / cell division [1]: arrested in a pre-mitotic state (termed late G2)
- Cell size (protein per cell) ([1]; treatment duration 1 day): 0.082 ± 0.01 nanograms protein/cell
- Cell size (protein per cell) ([1]; treatment duration 3 days): 0.135 ± 0.01 nanograms protein/cell
- Cell size (protein per cell) ([1]; treatment duration 5 days): 0.160 ± 0.01 nanograms protein/cell
- Cell size (protein per cell) ([1]; treatment duration 7 days): 0.168 ± 0.02 nanograms protein/cell
- Time course cell counts ([3]; Day 0, 1 mM, inositol-free medium): 1.46 × 10^5 cells per dish
- Time course cell counts ([3]; Day 1, 1 mM): 2.10 ± 0.03 cells per dish, × 10^5
- Time course cell counts ([3]; Day 3, 1 mM): 4.5 ± 0.10 cells per dish, × 10^5
- Time course cell counts ([3]; Day 5, 1 mM): 8.4 ± 0.7 cells per dish, × 10^5
- Time course cell counts ([3]; Day 7, 1 mM): 10.8 ± 0.6 cells per dish, × 10^5
- concentration determined to have maximal effects in the dose response study [3]: 1 mM
- inhibition of cell replication [3]: approximately 50%
- Cell Number ([3]; 0.01 mM): 4.53 ± 0.13 × 10^5 cells/dish
- Cell Number ([3]; 0.03 mM): 4.18 ± 0.07 × 10^5 cells/dish
- Cell Number ([3]; 0.10 mM): 3.71 ± 0.03 × 10^5 cells/dish
- Cell Number ([3]; 0.30 mM): 3.29 ± 0.08 × 10^5 cells/dish
- Cell Number ([3]; 1.0 mM): 2.73 ± 0.13 × 10^5 cells/dish
- Cell Number ([3]; 3.0 mM): 2.67 ± 0.09 × 10^5 cells/dish
- Cell Number ([3]; 10.0 mM): 2.68 ± 0.07 × 10^5 cells/dish
- Cell Number ([3]; 30.0 mM): 2.72 ± 0.03 × 10^5 cells/dish
- potency at inhibiting cell replication relative to the 3-fluoro-myo-inositol analog ([3]; listed as 1-deoxy-1-deoxy-1-fluoro-myo-inositol): about five-fold
- potency at inhibiting cell replication relative to the 3-fluoro-myo-inositol analog ([3]; listed as 1-fluoro-myo-inositol analog): 5 fold

- potency in blocking myo-inositol transport relative to the 1-fluoro myo-inositol analog [2]: 5.7 times
- block of [3H]myo-inositol uptake [2]: did block
- Maximal Transport Rate Vmax [2]: 2.27 nmol/mg/h
- Ki [2]: 250 µM
SMILES: O[C@@H]1[C@@H](O)[C@H](O)[C@@H](F)[C@@H](O)[C@H]1O [3-deoxy-3-fluoro-myo-inositol]
- cell size relative to control cells ([1]; by day seven): about 3.5 times
- effect on cell cycle / cell division [1]: continued to increase steadily in size without undergoing cell division
- Cell size (protein per cell) ([1]; treatment duration 1 day): 0.086 ± 0.01 nanograms protein/cell
- Cell size (protein per cell) ([1]; treatment duration 3 days): 0.259 ± 0.01 nanograms protein/cell
- Cell size (protein per cell) ([1]; treatment duration 5 days): 0.320 ± 0.01 nanograms protein/cell
- Cell size (protein per cell) ([1]; treatment duration 7 days): 0.343 ± 0.03 nanograms protein/cell
- Time course cell counts ([3]; Day 0, 5 mM, inositol-free medium): 1.46 × 10^5 cells per dish
- Time course cell counts ([3]; Day 1, 5 mM): 2.12 ± 0.02 cells per dish, × 10^5
- Time course cell counts ([3]; Day 3, 5 mM): 4.2 ± 0.1 cells per dish, × 10^5
- Time course cell counts ([3]; Day 5, 5 mM): 7.6 ± 0.1 cells per dish, × 10^5
- Time course cell counts ([3]; Day 7, 5 mM): 10.6 ± 0.6 cells per dish, × 10^5
- concentration determined to have maximal effects in the dose response study [3]: 5 mM
- inhibition of cell replication [3]: approximately 50%
- Cell Number ([3]; 0.01 mM): 4.60 ± 0.24 × 10^5 cells/dish
- Cell Number ([3]; 0.03 mM): 4.49 ± 0.07 × 10^5 cells/dish
- Cell Number ([3]; 0.10 mM): 4.21 ± 0.05 × 10^5 cells/dish
- Cell Number ([3]; 0.30 mM): 3.87 ± 0.05 × 10^5 cells/dish
- Cell Number ([3]; 1.0 mM): 3.21 ± 0.08 × 10^5 cells/dish
- Cell Number ([3]; 3.0 mM): 2.53 ± 0.04 × 10^5 cells/dish
- Cell Number ([3]; 10.0 mM): 2.50 ± 0.03 × 10^5 cells/dish
- Cell Number ([3]; 30.0 mM): 2.36 ± 0.01 × 10^5 cells/dish
